Test results: patent publication US9566264B2, “Combinations and methods” (Euthymics Bioscience, Inc., priority 2013, dated 2017)
Counter-ions that a name gives are not always drawn. Like-named read-outs stand apart in the source and are kept apart here.

Columns and labels:
human hepatocytes [1] = conditions: male, 4 h
Method: (§1) Cryopreserved human hepatocytes (male) that are prepared by XenoTech, LLC (Lenexa, Kans.), are thawed on the day of use and resuspended in Waymouth's incubation media. The enzymatic activity of hepatocytes is monitored using 7-ethoxycoumarin and 7-hydroxycoumarin as substrates. […] The incubations are carried out for 4 hours with 1×10^6 viable cells/ml. […] At 0 and 4 hour, cell suspensions are extracted using two volumes of ice cold methanol. After centrifugation, the extracts are stored at −20° C. until further sample processing. The solvent in the samples are dried under a stream of nitrogen, and resuspended in methanol:water (1:1) before analysis.
(§2) The extracts of the 4 hour incubation mixture are analyzed by liquid chromatography/electrospray ionization-mass spectrometry (LC/ESI-MS) in the positive and negative ion modes to screen for possible metabolites. […] The same instrumentation and methods in HPLC Method 1 are used in HPLC Method 2 with the exception that the mobile phases and gradient are 0.4% HCOOH in H2O for mobile A and CH3OH for mobile phase B. The mass spectrometer is LCQ™ Ion Trap Mass Spectrometer and is in either the positive or negative electrospray mode with the ion spray set at 4.5 kV. The capillary temperature is 250° C., the nitrogen sheath gas flow rate is ˜80 unit, the auxiliary nitrogen gas flow rate is 20 unit, and the collision gas is helium.

human hepatocytes [2] = assay: In vitro metabolism in human hepatocytes; conditions: 100 μM, 4 hours incubation
Method: as §1, §2

CYP2C19 = CYP2C19 (Homo sapiens, UniProt P33261); assay: Inhibition of human CYP activity in microsomes: (S)-mephenytoin 4′-hydroxylation; conditions: pooled human liver microsomes, 10 to 30 min at 37° C.
Caco-2 cells = assay: Caco-2 bi-directional permeability assay; type: in vitro ADME, human
Method: Caco-2 cells are obtained from American Type Culture Collection (ATCC, Manassas, Va.) and are grown to confluence for 14-21 days on 1 μm filters in 24 well plates. […] Receiver solutions consist of buffer only. Sequential samples of transported solute are taken at 20 minute intervals in duplicate over 2 hours and the concentration of the transported compound is determined by HPLC-UV/MS. Test sample concentration is determined by LC/MS. Permeability coefficients are calculated for each sampling interval, and averages from the intervals are determined. The apparent permeability coefficient Papp is calculated from the equation
[formula] where dQ/dt is the rate of permeation of drug across the cells, C0 is the original concentration in donor compartment at time zero, and A is the area of the cell monolayer. Mass balance in the system is ascertained by comparing the sum of transported solute and remaining donor solute to the starting solution concentration.

[3] = Flavin monooxygenase (FMO)-dependent lactam formation screening (pre-incubation temperature); type: in vitro ADME, human; conditions: for formation: area under the curve ratio of analyte to internal standard bicifadine-d5: 1 mM NADPH, mean ± SD; for formation after 37° C. pre-incubation versus 45° C. pre-incubation: 5 minute pre-incubation
Method: FMOs, but not CYP enzymes, are sensitive to elevated incubation temperature. Thus, to determine if the formation of the lactam metabolite is mediated by FMOs and/or CYPs, the effect of pre-incubation temperature on the lactam formation is conducted by XenoBiotic Laboratories, Inc. (Plainsboro, N.J.). […] The incubation of benzydamine (positive control, 200 μM) is carried out concurrently. The samples are analyzed using LC-MS/MS (see NADPH-dependent lactam formation methodology).

[4] = Human plasma protein binding (ultrafiltration); type: in vitro ADME
Method: Samples of test drug in triplicate are mixed and incubated in Millipore Multiscreen filter plates with Ultracel-10 regenerated cellulose membranes for 60 minutes at 37° C. Following incubation, samples undergo centrifugation for 60 minutes at 2000×g and the filtrate is collected. Percent protein bound is determined from the concentration of free compound present in the filtrate following comparison to a standard curve of test drug. […] The flow rate is 1 ml/min and the column temperature is maintained at 50° C. The solvent is a gradient of solvent A composed of 0.1% formic acid in water and solvent B composed of acetonitrile with 0.07% formic acid.

[5] = MAO phenotyping with MAO inhibitors in human liver mitochondria; type: in vitro ADME; conditions: 1 μM parent, 30 minutes at 37° C.
Method: A study on the role of monoamine oxidases involved in the formation of the lactam metabolite is conducted by XenoBiotic Laboratories, Inc. (Plainsboro, N.J.).

[6] = NADPH-dependent lactam formation in human liver microsomes; type: in vitro ADME; conditions: for formation: area under the curve ratio of analyte to internal standard bicifadine-d5: 10 μM parent, 30 minutes, mean ± SD
Method: The effect of NADPH on lactam formation ((1S,5R)-5-(3,4-dichlorophenyl)-3-azabicyclo[3.1.0]hexan-2-one hydrochloride, Compound 2) is conducted by XenoBiotic Laboratories, Inc. (Plainsboro, N.J.). […] Bicifadine ((±)-1-(4-methylphenyl)-3-azabicyclo-[3.1.0]hexane HCl) (10 μM) is used as a positive control and the formation of the lactam metabolite of bicifadine (designated M12) is also monitored. Negative controls are determined by incubation of amitifadine and bicifadine in the absence of liver enzymes. The samples are analyzed using LC-MS/MS.
The system controller for the HPLC system is a Shimadzu SCL-10Avp, the pump model is a Shimadzu LC-10Avp, and the autosampler model is Shimadzu HTA. The analytical column is Phenomenex Luna C18 5 μm 50×2.0 mm which is set at room temperature and the autosampler is also at room temperature. The injection volume is 5 μl. Mobile phase A is 0.05% formic acid in water and mobile phase B is 0.05% formic acid in acetonitrile. The flow rate is 0.7 ml/minute and run time is 5 minutes. The mass spectrometer is an AB MDX Sciex API-4000 run in the turbo ion spray (ESI) positive ion detection mode and the scan mode is multiple reaction monitoring (MRM). The optimized mass spectrometry conditions are ion spray at 5000 V, curtain gas 10 units temperature 500° C., entrance potential 10 V, collision gas 6 units, and gas 1 and 2 each 50 units.

[7] = Brain and plasma levels of amitifadine and lactam metabolite Compound 2 in rat; type: in vivo; parameters: plasma level, mean±SEM: unit not given here; conditions: for plasma level, mean±SEM: amitifadine 10 mg/kg po
Method: The studies are conducted in accordance with the Institutional Animal Care and Use Committee guidelines. […] At 0.5, 1, 2, and 4 hour after dosage, animals are briefly anesthetized in a chamber containing 4% isoflurane and rapidly decapitated. Trunk blood is collected in heparinized tubes (9 units/ml whole blood), immediately chilled to 4° C., centrifuged, and the plasma is frozen at −80° C. until analyzed. Brains are quickly removed, bisected along the midline, and frozen at −80° C. until analyzed.
Plasma and brain samples are allowed to thaw on ice and are homogenized in a 20 ml glass vial in two volumes of ice cold water using a handheld homogenizer (VDI 12, VWR International). Standard curves are prepared in water, control plasma, and control brain homogenate. Equal volumes (100 μl) of plasma or brain homogenate samples, distilled water and internal standard are mixed in 1.5 ml polypropylene tubes and 300 μl of acetonitrile is added to each mixture. Samples are then mixed thoroughly by placing on a shaker at 200 RPM for 40 minutes at room temperature. The samples are then centrifuged at 10,000×g for 10 minutes at 4° C. and the supernatant (200 μl) is transferred to a tube containing 2 μl of 10% formic acid. The samples are subjected to a Zorbax SBC18 Solvent Saver Plus 3.0×150 mm 3.5-μm column on a Shimadzu Prominence LC. […] The concentration of compound in the column effluent is measured using an Applied Biosystems API-3200 triple quadrupole mass spectrometer.

monoamine transporters = assay: Affinity for monoamine transporters; type: binding
CYP2B6 = target: T1, CYP2B6 (Homo sapiens, UniProt P20813); assay: Inhibition of human CYP activity in microsomes: bupropion hydroxylation; conditions: pooled human liver microsomes, 10 to 30 min at 37° C.
T1 sequence (P20813 1-491): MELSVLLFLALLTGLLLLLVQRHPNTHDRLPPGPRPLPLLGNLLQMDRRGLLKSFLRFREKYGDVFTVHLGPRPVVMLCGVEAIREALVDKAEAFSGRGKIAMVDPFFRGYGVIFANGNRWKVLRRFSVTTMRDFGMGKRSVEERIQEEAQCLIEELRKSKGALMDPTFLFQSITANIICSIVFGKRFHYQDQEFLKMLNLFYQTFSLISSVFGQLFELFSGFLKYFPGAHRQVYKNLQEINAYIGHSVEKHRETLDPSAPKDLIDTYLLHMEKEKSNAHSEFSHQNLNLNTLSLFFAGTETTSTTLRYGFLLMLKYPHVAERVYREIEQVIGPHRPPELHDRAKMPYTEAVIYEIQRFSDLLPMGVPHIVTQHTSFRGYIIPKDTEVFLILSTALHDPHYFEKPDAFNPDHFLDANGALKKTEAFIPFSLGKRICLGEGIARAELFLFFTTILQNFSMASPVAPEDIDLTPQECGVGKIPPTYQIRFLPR

[8] = human, Caco-2, 2 h, 10 μM, pH 7.4
[9] = microsomes pre-incubated at 37° C. for 5 minutes
[10] = microsomes pre-incubated at 45° C. for 5 minutes
[11] = male, Sprague-Dawley, brain/plasma, po, 10 mg/kg, read-out: brain to plasma ratio

Sequence of CYP2C19 (P33261 whole entry): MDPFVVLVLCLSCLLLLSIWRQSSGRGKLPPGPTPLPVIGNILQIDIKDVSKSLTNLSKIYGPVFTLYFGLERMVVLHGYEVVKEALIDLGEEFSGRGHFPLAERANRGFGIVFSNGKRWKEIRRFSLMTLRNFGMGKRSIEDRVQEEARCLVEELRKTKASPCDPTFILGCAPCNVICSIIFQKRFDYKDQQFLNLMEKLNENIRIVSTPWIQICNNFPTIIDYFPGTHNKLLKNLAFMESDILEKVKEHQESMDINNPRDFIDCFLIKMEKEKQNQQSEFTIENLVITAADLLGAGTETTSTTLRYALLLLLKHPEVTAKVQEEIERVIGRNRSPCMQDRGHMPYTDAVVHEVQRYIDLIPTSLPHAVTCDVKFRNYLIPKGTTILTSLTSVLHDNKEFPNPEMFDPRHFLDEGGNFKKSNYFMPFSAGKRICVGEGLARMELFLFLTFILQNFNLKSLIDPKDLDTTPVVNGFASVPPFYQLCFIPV

Compound: CCOc1ccc2ccc(=O)oc2c1 [7-ethoxycoumarin, reference compound]
- metabolized after incubation (human hepatocytes [1]; 100 μM): 68.9%

Compound: O=c1ccc2ccc(O)cc2o1 [7-hydroxycoumarin]
- metabolized after incubation (human hepatocytes [2]): 99.1%

Compound: CC[C@@]1(c2ccccc2)C(=O)NC(=O)N(Cc2ccccc2)C1=O [(R)-N-3-benzyl-Phenobarb-ital, (R)—N-3-benzylphenobarbital]
- IC50 (CYP2C19): 300 nM

Compound: Clc1ccc([C@]23CNC[C@H]2C3)cc1Cl [Amitifadine, (1R,5S)-(+)-1-(3,4-dichlorophenyl)-3-azabicyclo[3.1.0]hexane hydrochloride]
- parent remaining unchanged after incubation (human hepatocytes [1]; 87 μM): 82.4%
- Mass balance % AP→BL (Caco-2 cells; [8]): 62%
- Mass balance % BL→AP (Caco-2 cells; [8]): 88%

Compound: C[N+](C)([O-])CCCOc1nn(Cc2ccccc2)c2ccccc12 [Benzydamine N-oxide, reference compound]
- formation: area under the curve ratio of analyte to internal standard bicifadine-d5 [3, 9]: 35.70 ± 0.86
- formation: area under the curve ratio of analyte to internal standard bicifadine-d5 [3, 10]: 7.68 ± 1.51
- formation after 37° C. pre-incubation versus 45° C. pre-incubation [3]: 4.6 fold

Compound: Cn1c(=O)c2c(ncn2C)n(C)c1=O [Caffeine]
- fraction unbound at 60 min, 1 μM ([4]; 1 μM, mean and SEM of triplicate, read-out: % Bound (converted)): 0.73
- fraction unbound at 60 min, 10 μM ([4]; 10 μM, mean and SEM of triplicate, read-out: % Bound (converted)): 0.641
- fraction unbound at 60 min ([4]; average of 1 and 10 μM): 0.685

Compound: O=C1NC[C@]2(c3ccc(Cl)c(Cl)c3)C[C@H]12 [Compound 2, (1S,5R)-5-(3,4-dichlorophenyl)-3-azabicyclo[3.1.0]hexan-2-one hydrochloride]
- effect of MAO-A inhibitor clorgyline on lactam formation [5]: concentration-dependently decreased
- effect of MAO-B inhibitor selegiline on lactam formation [5]: did not have an effect
- formation: area under the curve ratio of analyte to internal standard bicifadine-d5 ([6]; 0 mM NADPH at 37° C): 0.04 ± 0.00
- formation: area under the curve ratio of analyte to internal standard bicifadine-d5 ([6]; 1 mM NADPH at 37° C.): 0.08 ± 0.01
- quantity formed in presence of NADPH versus absence of NADPH ([6]; 1 mM vs 0 mM NADPH): 2 fold
- plasma level, mean±SEM ([7]; 0.5 hours): 1153±610
- plasma level, mean±SEM ([7]; 1 hour): 1620±303
- plasma level, mean±SEM ([7]; 2 hours): 3831±1127
- plasma level, mean±SEM ([7]; 4 hours): 8896±794
- Kp at 0.5 h [7, 11]: 1.1
- Kp at 1 h [7, 11]: 1.3
- Kp at 2 h [7, 11]: 1.4
- Kp at 4 h [7, 11]: 1.7
- affinity for monoamine transporters (monoamine transporters): low affinity
- formation: area under the curve ratio of analyte to internal standard bicifadine-d5 [3, 9]: 0.05 ± 0.01
- formation: area under the curve ratio of analyte to internal standard bicifadine-d5 [3, 10]: 0.06 ± 0.01
- formation after 37° C. pre-incubation versus 45° C. pre-incubation [3]: did not alter

Compound: CC(Nn1nnc2ccccc21)c1ccccc1 (stereo not drawn) [N-(α-methylbenzyl)-1-AB, N-(α-methylbenzyl)-1-aminobenzotriazole]
- IC50 (CYP2B6): 60 nM

Compound: Lucifer yellow [reference compound]
- transfer across Caco-2 monolayer (integrity) (Caco-2 cells; Caco-2): ≤ 0.05%
